In publication PMC11042424, “Development of a First-in-Class RIPK1 Degrader to Enhance Antitumor Immunity” (Research Square, 2024):

Legend:
B16F10 tumors = test: B16F10 syngeneic tumor model with anti-PD1; type: in vivo
Method: (§1) Figure 4 LD4172 synergizes with Anti-PD1 to inhibit tumor growth. A, Plasma concentrations of LD4172 in C57BL/6J mice administered 1 mg/kg intravenously (i.v.) or 10 mg/kg intraperitoneally (i.p.) (n=4). B, Representative immunoblots of RIPK1 in different tissues of C57BL/6J mice treated with LD4172 (n=3–4). C, Densitometric analysis of RIPK1 protein levels in different tissues (n=3 or 4). D, Representative immunoblots of RIPK1 levels of B16F10 cells transduced with gRNA specific for RIPK1 or non-targetable control (sgNC). E, B16F10-RIPK1-KO tumors sensitized to anti-PD1 treatment: 3×10^5 B16F10 cells transduced with gRNA specific for RIPK1 or non-targetable control (sgNC) were inoculated into C57BL/6J mice. After seven days, mice with measurable tumors (~100 mm3) were randomly treated with or without anti-PD1 in vivo (100 μg per dose, i.p., every three days, n=8). F, Tumor growth curve of mice with B16F10 tumors treated with LD4172 and/or anti-PD1 (n=8). C57B6/J mice were subcutaneously inoculated with 3×10^5 B16F10 tumor cells. After seven days (tumor size ~ 100 mm3), mice were treated every three days with anti- PD1 (100 μg per dose, i.p.), daily with LD4172 (20 mg/kg, i.p.), a combination of LD4172 and anti-PD1 (same dose as their individual doses), or their corresponding vehicle control. G, Kaplan-Meier survival curve for all experimental groups. H, Final tumor weight (g) from F after 22d of treatment (n=8). I, Representative images of B16F10 tumors collected at the end of treatment. J, Mouse body weight (n=8). K, Tumor growth curve of mice with B16F10 tumors treated with T2I and/or anti-PD1 (n=8). The experimental conditions and treatment regimens were the same as F except using the RIPK1 kinase inhibitor T2I (20 mg/kg, i.p.) to replace LD4172. Representative data from at least three independent experiments are shown. Data are expressed as the mean ± SEM. * p<0.05; ** p<0.01; *** p<0.001, **** p<0.0001, respectively. ns, indicates no statistical significance.
To establish a syngeneic mouse model, 3× 10^5 B16F10 cells resuspended in PBS were mixed 1:1 by volume with Matrigel (354262, Corning) and subcutaneously injected into the right flank of seven-week-old wild-type female C57BL/6J mice on day 0. Treatments were started on day 7 when the tumor volume reached approximately 100 mm^3. Antibodies were administered in 100μL volumes and injected intraperitoneally every three days for the following: anti-PD1 (100 μg, BE0146, BioXcell) and anti-CD8 (500 μg, BE0004, BioXcell). The RIPK1 degrader LD4172 and RIPK1 kinase inhibitor T2I were delivered in 200 μL of vehicle solution (30% PEG400, 5% Tween-80, 5% DMSO) once daily (20 mg/kg, i.p. injection). […] Tumors were measured every three days beginning on day 7 after the challenge until death. […]

RIPK1 = biological target: T1, RIPK1 (Mus musculus, UniProt Q60855); test: In vivo pharmacodynamics: RIPK1 levels in tissues; set-up: observed a 60% reduction in RIPK1 levels in tumors; from tissue; host or cells: tumors, spleen, lymph nodes, PBMCs, lungs, bone marrow of C57BL/6J mice; species or system C57BL/6J mice
T1 sequence (Q60855 1-656): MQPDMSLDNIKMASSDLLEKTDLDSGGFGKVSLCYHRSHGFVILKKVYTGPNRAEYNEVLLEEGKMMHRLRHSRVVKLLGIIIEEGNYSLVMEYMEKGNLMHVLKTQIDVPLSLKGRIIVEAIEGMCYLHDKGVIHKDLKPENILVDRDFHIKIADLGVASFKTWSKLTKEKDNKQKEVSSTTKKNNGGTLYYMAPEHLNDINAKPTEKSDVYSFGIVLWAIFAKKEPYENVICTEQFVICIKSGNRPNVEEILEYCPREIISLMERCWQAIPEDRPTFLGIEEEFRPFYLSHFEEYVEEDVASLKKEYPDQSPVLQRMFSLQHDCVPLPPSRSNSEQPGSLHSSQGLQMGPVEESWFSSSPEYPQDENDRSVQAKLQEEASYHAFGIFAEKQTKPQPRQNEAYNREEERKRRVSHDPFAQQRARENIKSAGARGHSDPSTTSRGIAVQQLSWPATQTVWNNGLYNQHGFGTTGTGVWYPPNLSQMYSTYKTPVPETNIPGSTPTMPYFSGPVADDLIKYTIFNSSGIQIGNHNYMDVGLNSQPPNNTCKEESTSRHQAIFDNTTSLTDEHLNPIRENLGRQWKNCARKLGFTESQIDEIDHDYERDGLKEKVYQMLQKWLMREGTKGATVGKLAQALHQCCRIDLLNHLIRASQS
Method: as §1
To investigate the pharmacodynamics of LD4172 in vivo, we administered LD4172 via the i.p. route and observed a 60% reduction in RIPK1 levels in tumors (20 mg/kg, b.i.d., i.p.) (Fig. 4B–C).

In the case of `Cc1ncsc1-c1ccc([C@H](C)NC(=O)[C@@H]2C[C@@H](O)CN2C(=O)[C@@H](NC(=O)CCCCCCCCCCC(=O)NCCCn2cc(-c3ccc4c(c3)CCN4C(=O)Cc3cccc(OC(F)(F)F)c3)c3c(N)ncnc32)C(C)(C)C)cc1` [LD4172], the “tumor response in combination with anti-PD1” value (B16F10 tumors; B16F10 tumors, 20 mg/kg i.p. daily plus anti-PD1 100 μg i.p. every three days) is reported as “sensitized B16F10 tumors to anti-PD1 therapy”, the “tumor progression, single agent” value (B16F10 tumors; B16F10 tumors, LD4172 20 mg/kg i.p. daily, anti-PD1 100 μg i.p. every three days) is reported as “tumor progression similar to that of the untreated mice” and the mouse body weight (B16F10 tumors; long-term administration) is reported as “no impact on mouse body weight”. The “reduction in RIPK1 levels in tumors” value (RIPK1; 20 mg/kg, b.i.d., i.p.) was 60%, the “RIPK1 degradation in lymph nodes, PBMCs, lungs, and bone marrow” value (RIPK1; i.p.) was “no significant RIPK1 degradation” and the “RIPK1 degradation in the spleen” value (RIPK1; i.p.) was “less than 50%”. For the same compound, the “RIPK1 degradation in tumors, intratumoral administration” value (RIPK1; intratumoral vs i.p.) was “improved RIPK1 degradation in the tumors”.
